The assay has as its target HCV RdRp (NS5B) (UniProt P26663). Format: biochemical, hepatitis C virus.
Sequence of HCV RdRp (NS5B) (P26663 whole entry, looked up): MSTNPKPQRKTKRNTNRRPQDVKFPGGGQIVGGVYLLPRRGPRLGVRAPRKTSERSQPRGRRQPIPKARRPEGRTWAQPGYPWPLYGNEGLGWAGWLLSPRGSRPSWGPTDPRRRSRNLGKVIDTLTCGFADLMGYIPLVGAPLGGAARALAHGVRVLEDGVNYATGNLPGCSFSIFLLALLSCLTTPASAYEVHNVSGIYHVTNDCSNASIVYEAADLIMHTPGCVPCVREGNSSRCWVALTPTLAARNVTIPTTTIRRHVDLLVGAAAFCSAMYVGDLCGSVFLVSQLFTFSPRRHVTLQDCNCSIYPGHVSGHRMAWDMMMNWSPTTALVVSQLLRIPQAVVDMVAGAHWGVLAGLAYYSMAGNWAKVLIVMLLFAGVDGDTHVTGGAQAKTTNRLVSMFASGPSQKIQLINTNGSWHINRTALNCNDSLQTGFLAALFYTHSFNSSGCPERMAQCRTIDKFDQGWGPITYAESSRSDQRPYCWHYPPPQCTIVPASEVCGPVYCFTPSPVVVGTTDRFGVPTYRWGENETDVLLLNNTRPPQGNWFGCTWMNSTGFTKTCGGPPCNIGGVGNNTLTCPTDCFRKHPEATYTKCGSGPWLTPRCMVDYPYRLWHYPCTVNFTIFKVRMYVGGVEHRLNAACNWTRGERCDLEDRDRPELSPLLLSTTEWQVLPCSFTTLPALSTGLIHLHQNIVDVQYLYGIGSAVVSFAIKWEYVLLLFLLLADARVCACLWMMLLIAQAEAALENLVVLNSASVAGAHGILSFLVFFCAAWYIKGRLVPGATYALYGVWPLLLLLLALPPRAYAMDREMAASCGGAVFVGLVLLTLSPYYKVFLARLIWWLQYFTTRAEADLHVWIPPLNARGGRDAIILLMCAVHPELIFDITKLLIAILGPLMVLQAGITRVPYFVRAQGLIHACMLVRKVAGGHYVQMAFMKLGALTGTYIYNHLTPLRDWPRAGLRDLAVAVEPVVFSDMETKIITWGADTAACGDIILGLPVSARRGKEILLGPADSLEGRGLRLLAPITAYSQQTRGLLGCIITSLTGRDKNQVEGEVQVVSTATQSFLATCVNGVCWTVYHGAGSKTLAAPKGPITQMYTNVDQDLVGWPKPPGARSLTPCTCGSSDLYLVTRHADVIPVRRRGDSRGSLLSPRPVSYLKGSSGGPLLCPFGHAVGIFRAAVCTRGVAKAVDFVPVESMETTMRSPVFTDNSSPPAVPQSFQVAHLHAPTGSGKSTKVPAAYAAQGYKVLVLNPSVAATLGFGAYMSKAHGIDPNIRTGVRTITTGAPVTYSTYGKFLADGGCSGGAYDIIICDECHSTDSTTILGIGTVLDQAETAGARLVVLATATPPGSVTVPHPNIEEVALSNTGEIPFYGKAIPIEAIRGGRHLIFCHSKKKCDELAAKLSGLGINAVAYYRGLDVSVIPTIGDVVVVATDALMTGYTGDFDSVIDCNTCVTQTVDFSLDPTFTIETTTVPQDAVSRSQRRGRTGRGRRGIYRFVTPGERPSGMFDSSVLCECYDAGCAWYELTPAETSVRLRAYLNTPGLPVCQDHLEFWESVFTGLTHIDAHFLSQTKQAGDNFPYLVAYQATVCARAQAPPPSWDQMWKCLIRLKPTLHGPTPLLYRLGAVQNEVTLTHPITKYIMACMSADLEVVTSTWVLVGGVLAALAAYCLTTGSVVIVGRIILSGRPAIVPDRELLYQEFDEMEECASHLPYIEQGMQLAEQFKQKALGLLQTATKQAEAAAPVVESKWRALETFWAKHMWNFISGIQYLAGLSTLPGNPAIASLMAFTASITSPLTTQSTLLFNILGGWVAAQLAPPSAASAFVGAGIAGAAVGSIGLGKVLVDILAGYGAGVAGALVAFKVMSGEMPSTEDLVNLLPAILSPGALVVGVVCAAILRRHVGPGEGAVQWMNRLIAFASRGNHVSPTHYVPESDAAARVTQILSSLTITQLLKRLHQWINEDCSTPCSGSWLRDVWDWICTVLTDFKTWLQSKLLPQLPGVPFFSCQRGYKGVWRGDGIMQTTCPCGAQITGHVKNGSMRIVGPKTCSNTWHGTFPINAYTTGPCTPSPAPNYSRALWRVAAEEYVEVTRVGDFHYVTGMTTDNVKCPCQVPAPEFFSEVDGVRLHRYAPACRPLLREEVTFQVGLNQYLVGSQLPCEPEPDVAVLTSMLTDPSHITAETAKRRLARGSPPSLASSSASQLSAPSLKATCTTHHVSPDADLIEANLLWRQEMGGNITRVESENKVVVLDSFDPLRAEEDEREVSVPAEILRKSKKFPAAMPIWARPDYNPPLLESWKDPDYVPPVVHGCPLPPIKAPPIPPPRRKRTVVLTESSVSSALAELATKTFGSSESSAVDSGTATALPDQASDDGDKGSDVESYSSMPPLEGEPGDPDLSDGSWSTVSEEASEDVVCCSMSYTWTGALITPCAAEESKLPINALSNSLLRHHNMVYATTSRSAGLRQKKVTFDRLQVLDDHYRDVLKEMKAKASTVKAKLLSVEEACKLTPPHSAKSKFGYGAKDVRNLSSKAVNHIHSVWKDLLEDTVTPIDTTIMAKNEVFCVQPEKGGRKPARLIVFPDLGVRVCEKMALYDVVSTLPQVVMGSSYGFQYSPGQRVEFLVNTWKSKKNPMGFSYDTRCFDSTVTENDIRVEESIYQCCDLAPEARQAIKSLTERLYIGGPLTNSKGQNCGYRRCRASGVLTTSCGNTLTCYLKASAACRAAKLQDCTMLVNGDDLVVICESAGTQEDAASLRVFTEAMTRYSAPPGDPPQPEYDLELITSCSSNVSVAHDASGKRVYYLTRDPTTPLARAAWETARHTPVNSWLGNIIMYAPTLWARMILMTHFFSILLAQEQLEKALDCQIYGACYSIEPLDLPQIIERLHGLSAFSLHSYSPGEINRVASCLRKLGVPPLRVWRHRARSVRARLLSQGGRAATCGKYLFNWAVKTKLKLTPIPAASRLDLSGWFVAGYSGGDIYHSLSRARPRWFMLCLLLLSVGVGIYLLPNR
The compound `Cc1ccc(NC(=O)[C@H](CCCCN)NC(=O)COc2ccc(I)cc2)cc1` [Compound 327, (S)-6-AMINO-2-[2-(4-IODO-PHENOXY)-ACETYLAMINO]-HEXANOIC ACID P-TOLYLAMIDE] gave an IC50 of more than 50 µM.

On to `Cc1ccc(NC(=O)[C@H](CCCCN)NC(=O)COc2ccccc2)cc1` [Compound 328, (S)-^6-AMINO-^2-(^2-PHENOXY-ACETYLAMINO)-HEXANOIC ACID P-TOLYLAMIDE], for which the 50% inhibitory concentration (IC50) was more than 50 µM.

In the case of `Cc1ccc(NC(=O)[C@H](CCCCN)NC(=O)COc2ccc(F)cc2)cc1` [Compound 329, (S)-6-AMINO-2-[^2-(^4-FLUORO-PHENOXY)-ACETYLAMINO]-HEXANOIC ACID P-TOLYLAMIDE], the IC50 was more than 50 µM.

Turning to `Cc1ccc(NC(=O)[C@H](CCCCN)NC(=O)COc2cccc(Cl)c2)cc1` [Compound 330, (S)-^6-AMINO-2-[2-(^3-CHLORO-PHENOXY)-ACETYLAMINO]-HEXANOIC ACID P-TOLYLAMIDE], the half-inhibitory concentration (IC50) was more than 50 µM.

Turning to `Cc1ccc(NC(=O)[C@H](CCCCN)NC(=O)COc2ccc(Cl)cc2)cc1` [Compound 331, (S)-6-AMINO-2-[2-(4-CHLORO-PHENOXY)-ACETYLAMINO]-HEXANOIC ACID P-TOLYLAMIDE], the IC50 is more than 50 µM.

The compound `Cc1ccc(NC(=O)C(CCCCN)NC(=O)COc2cccc(C(F)(F)F)c2)cc1` [Compound 332, (S)-6-AMINO-2-[2-(3-TRIFLUOROMETHYL-PHENOXY)-ACETYLAMINO]-HEXANOIC ACID P-TOLYLAMIDE] displayed an IC50 of more than 50 µM.

In turn, `Cc1ccc(NC(=O)[C@H](CCCCN)NC(=O)COc2ccc(Oc3ccccc3)cc2)cc1` [Compound 333, (S)-6-AMINO-2-[2-(4-PHENOXY-PHENOXY)-ACETYLAMINO]-HEXANOIC ACID P-TOLYLAMIDE] had an IC50 of more than 50 µM.

For `Cc1ccc(NC(=O)[C@H](CCCCN)NC(=O)CNCCc2ccccc2)cc1` [Compound 334, (S)-6-AMINO-2-(2-PHENETHYLAMINO-ACETYLAMINO)-HEXANOIC ACID P-TOLYLAMIDE], the IC50 was more than 50 µM.

The compound `Cc1ccc(NC(=O)C(CCCCN)NC(=O)CNCCc2c[nH]c3ccccc23)cc1` [Compound 335, (S)-6-AMINO-2-{2-[2-(1H-INDOL-3-YL)-ETHYLAMINO]-ACETYLAMINO}-HEXANOIC ACID P-TOLYLAMIDE] yielded an IC50 of more than 50 µM.

`Cc1ccc(NC(=O)[C@H](CCCCN)NC(=O)CNC2Cc3ccccc3C2)cc1` [Compound 336, (S)-6-AMINO-2-[2-(INDAN-2-YLAMINO)-ACETYLAMINO]-HEXANOIC ACID P-TOLYLAMIDE]: the IC50 was more than 50 µM.

`Cc1ccc(NC(=O)[C@H](CCCCN)NC(=O)CNCc2ccccc2)cc1` [Compound 337, (S)-6-AMINO-2-(2-BENZYLAMINO-ACETYLAMINO)-HEXANOIC ACID P-TOLYLAMIDE] returned an IC50 of more than 50 µM.

`Cc1ccc(NC(=O)C(CCCCN)NC(=O)CNCc2ccccc2C)cc1` [Compound 338, (S)-6-AMINO-2-[2-(2-METHYL-BENZYLAMINO)-ACETYLAMINO]-HEXANOIC ACID P-TOLYLAMIDE]: the IC50 was more than 50 µM.

As to `Cc1ccc(NC(=O)C(CCCCN)NC(=O)CNCc2cccc(C)c2)cc1` [Compound 339, (S)-6-AMINO-2-[2-(3-METHYL-BENZYLAMINO)-ACETYLAMINO]-HEXANOIC ACID P-TOLYLAMIDE], the IC50 is more than 50 µM.

Turning to `Cc1ccc(CNCC(=O)NC(CCCCN)C(=O)Nc2ccc(C)cc2)cc1` [Compound 340, (S)-6-AMINO-2-[2-(4-METHYL-BENZYLAMINO)-ACETYLAMINO]-HEXANOIC ACID P-TOLYLAMIDE], the IC50 was more than 50 µM.

Take `COc1ccccc1CNCC(=O)N[C@@H](CCCCN)C(=O)Nc1ccc(C)cc1` [Compound 341, (S)-6-AMINO-2-[2-(2-METHOXY-BENZYLAMINO)-ACETYLAMINO]-HEXANOIC ACID P-TOLYLAMIDE]: the IC50 is more than 50 µM.

On to `COc1cccc(CNCC(=O)N[C@@H](CCCCN)C(=O)Nc2ccc(C)cc2)c1` [Compound 342, (S)-6-AMINO-2-[2-(3-METHOXY-BENZYLAMINO)-ACETYLAMINO]-HEXANOIC ACID P-TOLYLAMIDE], for which the 50% inhibitory concentration (IC50) was more than 50 µM.

In turn, `COc1ccc(CNCC(=O)N[C@@H](CCCCN)C(=O)Nc2ccc(C)cc2)cc1` [Compound 343, (S)-6-AMINO-2-[2-(4-METHOXY-BENZYLAMINO)-ACETYLAMINO]-HEXANOIC ACID P-TOLYLAMIDE] showed an IC50 of more than 50 µM.

`Cc1ccc(NC(=O)[C@H](CCCCN)NC(=O)CNCc2ccccc2F)cc1` [Compound 344, (S)-6-AMINO-2-[2-(2-FLUORO-BENZYLAMINO)-ACETYLAMINO]-HEXANOIC ACID P-TOLYLAMIDE] came in with an IC50 of more than 50 µM.

In turn, `Cc1ccc(NC(=O)[C@H](CCCCN)NC(=O)CNCc2cccc(F)c2)cc1` [Compound 345, (S)-6-AMINO-2-[2-(3-FLUORO-BENZYLAMINO)-ACETYLAMINO]-HEXANOIC ACID P-TOLYLAMIDE] yielded an IC50 of more than 50 µM.

Consider `Cc1ccc(NC(=O)[C@H](CCCCN)NC(=O)CNCc2ccc(F)cc2)cc1` [Compound 346, (S)-6-AMINO-2-[2-(4-FLUORO-BENZYLAMINO)-ACETYLAMINO]-HEXANOIC ACID P-TOLYLAMIDE], for which the IC50 was more than 50 µM.

Compound `Cc1ccc(NC(=O)[C@H](CCCCN)NC(=O)CNCc2ccccc2Cl)cc1` [Compound 347, (S)-6-AMINO-2-[2-(2-CHLORO-BENZYLAMINO)-ACETYLAMINO]-HEXANOIC ACID P-TOLYLAMIDE] gave an IC50 of more than 50 µM.

For `Cc1ccc(NC(=O)[C@H](CCCCN)NC(=O)CNCc2cccc(Cl)c2)cc1` [Compound 348, (S)-6-AMINO-2-[2-(3-CHLORO-BENZYLAMINO)-ACETYLAMINO]-HEXANOIC ACID P-TOLYLAMIDE], the IC50 is more than 50 µM.

`Cc1ccc(NC(=O)[C@H](CCCCN)NC(=O)CNCc2ccc(Cl)cc2)cc1` [Compound 349, (S)-6-AMINO-2-[2-(4-CHLORO-BENZYLAMINO)-ACETYLAMINO]-HEXANOIC ACID P-TOLYLAMIDE] yielded an IC50 of more than 50 µM.

Compound `Cc1ccc(NC(=O)C(CCCCN)NC(=O)CNCc2ccccc2C(F)(F)F)cc1` [Compound 350, (S)-6-AMINO-2-[2-(2-TRIFLUOROMETHYL-BENZYLAMINO)-ACETYLAMINO]-HEXANOIC ACID P-TOLYLAMIDE] registered an IC50 of more than 50 µM.

As to `Cc1ccc(NC(=O)C(CCCCN)NC(=O)CNCc2cccc(C(F)(F)F)c2)cc1` [Compound 351, (S)-6-AMINO-2-[2-(3-TRIFLUOROMETHYL-BENZYLAMINO)-ACETYLAMINO]-HEXANOIC ACID P-TOLYLAMIDE], the 50% inhibitory concentration (IC50) was more than 50 µM.

In turn, `Cc1ccc(NC(=O)C(CCCCN)NC(=O)CNCc2ccc(C(F)(F)F)cc2)cc1` [Compound 352, (S)-6-AMINO-2-[2-(4-TRIFLUOROMETHYL-BENZYLAMINO)-ACETYLAMINO]-HEXANOIC ACID P-TOLYLAMIDE] showed a 50% inhibitory concentration (IC50) of more than 50 µM.

Consider `Cc1ccc(NC(=O)C(CCCCN)NC(=O)CN(C)Cc2ccccc2)cc1` [Compound 353, (S)-6-AMINO-2-[2-(BENZYL-METHYL-AMINO)-ACETYLAMINO]-HEXANOIC ACID P-TOLYLAMIDE], for which the IC50 was more than 50 µM.

Compound `Cc1ccc(NC(=O)C(CCCCN)NC(=O)CN(c2ccccc2)C2CCCCC2)cc1` [Compound 354, (S)-6-AMINO-2-[2-(CYCLOHEXYL-PHENYL-AMINO)-ACETYLAMINO]-HEXANOIC ACID P-TOLYLAMIDE] came in with an IC50 of more than 50 µM.

For `Cc1ccc(NC(=O)[C@H](CCCCN)NC(=O)CNc2cccc(C)c2)cc1` [Compound 355, (S)-6-AMINO-2-(2-M-TOLYLAMINO-ACETYLAMINO)-HEXANOIC ACID P-TOLYLAMIDE], the IC50 is more than 50 µM.

The compound `Cc1ccc(NCC(=O)N[C@@H](CCCCN)C(=O)Nc2ccc(C)cc2)cc1` [Compound 356, (S)-6-AMINO-2-(2-P-TOLYLAMINO-ACETYLAMINO)-HEXANOIC ACID P-TOLYLAMIDE] returned an IC50 of more than 50 µM.

On to `COc1ccccc1NCC(=O)N[C@@H](CCCCN)C(=O)Nc1ccc(C)cc1` [Compound 357, (S)-6-AMINO-2-[2-(2-METHOXY-PHENYLAMINO)-ACETYLAMINO]-HEXANOIC ACID P-TOLYLAMIDE], for which the 50% inhibitory concentration (IC50) was more than 50 µM.

Consider `COc1cccc(NCC(=O)N[C@@H](CCCCN)C(=O)Nc2ccc(C)cc2)c1` [Compound 358, (S)-6-AMINO-2-[2-(3-METHOXY-PHENYLAMINO)-ACETYLAMINO]-HEXANOIC ACID P-TOLYLAMIDE], for which the concentration for half-maximal inhibition (IC50) fell in the range of 10 to 50 µM.

`Cc1ccc(NC(=O)[C@H](CCCCN)NC(=O)CNc2ccccc2F)cc1` [Compound 359, (S)-6-AMINO-2-[2-(2-FLUORO-PHENYLAMINO)-ACETYLAMINO]-HEXANOIC ACID P-TOLYLAMIDE] displayed an IC50 of more than 50 µM.

For `Cc1ccc(NC(=O)[C@H](CCCCN)NC(=O)CNc2cccc(F)c2)cc1` [Compound 360, (S)-6-AMINO-2-[2-(3-FLUORO-PHENYLAMINO)-ACETYLAMINO]-HEXANOIC ACID P-TOLYLAMIDE], the IC50 was 10 to 50 µM.

The compound `Cc1ccc(NC(=O)[C@H](CCCCN)NC(=O)CNc2ccc(F)cc2)cc1` [Compound 361, (S)-6-AMINO-2-[2-(4-FLUORO-PHENYLAMINO)-ACETYLAMINO]-HEXANOIC ACID P-TOLYLAMIDE] came in with an IC50 of more than 50 µM.

With `Cc1ccc(NC(=O)[C@H](CCCCN)NC(=O)CNc2cccc(Cl)c2)cc1` [Compound 362, (S)-6-AMINO-2-[2-(3-CHLORO-PHENYLAMINO)-ACETYLAMINO]-HEXANOIC ACID P-TOLYLAMIDE], the IC50 was more than 50 µM.

The compound `Cc1ccc(NC(=O)[C@H](CCCCN)NC(=O)CNc2ccc(Cl)cc2)cc1` [Compound 363, (S)-6-AMINO-2-[2-(4-CHLORO-PHENYLAMINO)-ACETYLAMINO]-HEXANOIC ACID P-TOLYLAMIDE] came in with an IC50 of more than 50 µM.

`Cc1ccc(NC(=O)C(CCCCN)NC(=O)CNc2cccc(C(F)(F)F)c2)cc1` [Compound 364, (S)-6-AMINO-2-[2-(3-TRIFLUOROMETHYL-PHENYLAMINO)-ACETYLAMINO]-HEXANOIC ACID P-TOLYLAMIDE] displayed an IC50 of more than 50 µM.

Compound `Cc1ccc(NC(=O)C(CCCCN)NC(=O)CNc2ccc(C(F)(F)F)cc2)cc1` [Compound 365, (S)-6-AMINO-2-[2-(4-TRIFLUOROMETHYL-PHENYLAMINO)-ACETYLAMINO]-HEXANOIC ACID P-TOLYLAMIDE] showed an IC50 of more than 50 µM.

Regarding `Cc1ccc(NC(=O)[C@H](CCCCN)NC(=O)CNc2ccc3c(c2)CCC3)cc1` [Compound 369, (S)-6-AMINO-2-[2-(INDAN-5-YLAMINO)-ACETYLAMINO]-HEXANOIC ACID P-TOLYLAMIDE], the IC50 is more than 50 µM.

The record behind these values is patent US20070021434A1, “NON-NUCLEOSIDE ANTI-HEPACIVIRUS AGENTS AND USES THEREOF” (Migenix Inc., priority 2005, published 2007).
